Results as given in patent US9156810B2, “Treatment of inflammatory bowel disease” (ALLERGAN, INC., priority 2003, dated 2015).

How the values were obtained:
[1] = molecular target: T1, hEP4 (Homo sapiens (Human), UniProt P35408); experiment: FLIPR calcium signal, HEK-293(EBNA) cells expressing hEP4/Gqs5; format: cell-based; details: bottom number in Table 2, read-out: hEP4 functional EC50
Description: (§1) HEK-293(EBNA) cells, stably expressing one type or subtype of recombinant human prostaglandin receptors (prostaglandin receptors expressed: hDP/Gqs5; hEP1; hEP2/Gqs5; hEP3A/Gqi5; hEP4/Gqs5; hFP; hIP; hTP), were cultured in 100 mm culture dishes in high-glucose DMEM medium containing 10% fetal bovine serum, 2 mM 1-glutamine, 250 μg/ml geneticin (G418) and 200 μg/ml hygromycin B as selection markers, and 100 units/ml penicillin G, 100 μg/m streptomycin and 0.25 μg/m amphotericin B.
(§2) Cells were seeded at a density of 5×10^4 cells per well in Biocoat® Poly-D-lysine-coated black-wall, clear-bottom 96-well plates (Becton-Dickinson) and allowed to attach overnight in an incubator at 37° C. Cells were then washed two times with HBSS-HEPES buffer (Hanks Balanced Salt Solution without bicarbonate and phenol red, 20 mM HEPES, pH 7.4) using a Denley Cellwash plate washer (Labsystems). After 45 minutes of dye-loading in the dark, using the calcium-sensitive dye Fluo-4 AM at a final concentration of 2 μM, plates were washed four times with HBSS-HEPES buffer to remove excess dye leaving 100 μl in each well. Plates were re-equilibrated to 37° C. for a few minutes.
Cells were excited with an Argon laser at 488 nm, and emission was measured through a 510-570 nm bandwidth emission filter (FLIPR™, Molecular Devices, Sunnyvale, Calif.). […] The peak increase in fluorescence intensity was recorded for each well. On each plate, four wells each served as negative (HBSS-HEPES buffer) and positive controls (standard agonists: BW245C (hDP); PGE2 (hEP1; hEP2/Gqs5; hEP3A/Gqi5; hEP4/Gqs5); PGF2 (hFP); carbacyclin (hIP); U-46619 (hTP), depending on receptor). The peak fluorescence change in each drug-containing well was then expressed relative to the controls.
(§3) Compounds were tested in a high-throughput (HTS) or concentration-response (CoRe) format. In the HTS format, forty-four compounds per plate were examined in duplicates at a concentration of 10^−5 M. To generate concentration-response curves, four compounds per plate were tested in duplicates in a concentration range between 10^−5 and 10^−11 M. The duplicate values were averaged.

[2] = molecular target: T1, hEP4; experiment: Radioligand binding ([3H]PGE2), HEK-293 cell membranes expressing EP4 receptor; details: top number in Table 2
Description: (§4) HEK-293 cells stably expressing the human or feline FP receptor, or EP1, EP2, EP3, or EP4 receptors were washed with TME buffer, scraped from the bottom of the flasks, and homogenized for 30 sec using a Brinkman PT 10/35 polytron. TME buffer was added to achieve a final 40 ml volume in the centrifuge tubes (the composition of TME is 100 mM TRIS base, 20 mM MgCl2, […]; 10N HCl is added to achieve a pH of 7.4).
(§5) The cell homogenate was centrifuged at 19000 r.p.m. for 20 min at 4° C. using a Beckman Ti-60 rotor. The resultant pellet was resuspended in TME buffer to give a final 1 mg/ml protein concentration, as determined by Biorad assay. Radioligand binding competition assays vs. [^3H-]17-phenyl PGF2α, (5 nM) were performed in a 100 μl volume for 60 min. Binding reactions were started by adding plasma membrane fraction. The reaction was terminated by the addition of 4 ml ice-cold TRIS-HCl buffer and rapid filtration through glass fiber GF/B filters using a Brandel cell harvester. The filters were washed 3 times with ice-cold buffer and oven dried for one hour. Non-specific binding was determined with 10 uM unlabeled 17-phenyl PGF2α.
(§6) [^3H-] PGE2 (5 nM; specific activity 180 Ci mmol) was used as the radioligand for EP receptors. Binding studies employing EP1, EP2, EP3, EP4 were performed in duplicate in at least three separate experiments. A 200 μl assay volume was used. Incubations were for 60 min at 25° C. and were terminated by the addition of 4 ml of ice-cold 50 mM TRIS-HCl, followed by rapid filtration through Whatman GF/B filters and three additional 4 ml washes in a cell harvester (Brandel). Non-specific binding determined with 10^−5M of unlabeled PGE2.

[3] = molecular target: hTP (Homo sapiens (Human), UniProt P21731); experiment: Table 2 top number, hTP (radioligand binding per footnote); details: top number in Table 2
[4] = molecular target: hEP3D (Homo sapiens (Human), UniProt P43115); experiment: Radioligand binding ([3H]PGE2), HEK-293 cell membranes expressing EP3 receptor; details: top number in Table 2
Description: as §4, §5, §6

[5] = molecular target: hEP1 (Homo sapiens (Human), UniProt P34995); experiment: Radioligand binding ([3H]PGE2), HEK-293 cell membranes expressing EP1 receptor; details: top number in Table 2
Description: as §4, §5, §6

[6] = molecular target: hEP3A (Homo sapiens (Human), UniProt P43115); experiment: FLIPR calcium signal, HEK-293(EBNA) cells expressing hEP3A/Gqi5; format: cell-based; details: bottom number in Table 2, read-out: hEP3A functional EC50
Description: as §1, §2
Cells were excited with an Argon laser at 488 nm, and emission was measured through a 510-570 nm bandwidth emission filter (FLIPR™, Molecular Devices, Sunnyvale, Calif.). Drug solution was added in a 50 μl volume to each well to give the desired final concentration. The peak increase in fluorescence intensity was recorded for each well. On each plate, four wells each served as negative (HBSS-HEPES buffer) and positive controls (standard agonists: BW245C (hDP); PGE2 (hEP1; hEP2/Gqs5; hEP3A/Gqi5; hEP4/Gqs5); PGF2 (hFP); carbacyclin (hIP); U-46619 (hTP), depending on receptor). The peak fluorescence change in each drug-containing well was then expressed relative to the controls.
as §3, with “averaged. In either, HTS or CoRe format each compound was tested on at least 3 separate plates using cells from different passages to give an n≧3.” for “averaged.”

Chain of hEP1 (P34995 whole entry): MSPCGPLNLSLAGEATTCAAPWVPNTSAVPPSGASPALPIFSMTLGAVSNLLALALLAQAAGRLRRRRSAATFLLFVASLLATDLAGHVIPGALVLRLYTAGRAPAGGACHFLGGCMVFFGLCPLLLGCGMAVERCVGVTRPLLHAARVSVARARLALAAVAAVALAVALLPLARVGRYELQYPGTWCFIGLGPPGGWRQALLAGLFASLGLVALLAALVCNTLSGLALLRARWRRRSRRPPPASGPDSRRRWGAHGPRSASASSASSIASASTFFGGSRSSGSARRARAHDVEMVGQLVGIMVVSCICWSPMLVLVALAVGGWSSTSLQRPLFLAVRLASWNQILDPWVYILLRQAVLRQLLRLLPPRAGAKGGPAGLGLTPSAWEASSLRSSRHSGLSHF
Chain of hTP (P21731 whole entry): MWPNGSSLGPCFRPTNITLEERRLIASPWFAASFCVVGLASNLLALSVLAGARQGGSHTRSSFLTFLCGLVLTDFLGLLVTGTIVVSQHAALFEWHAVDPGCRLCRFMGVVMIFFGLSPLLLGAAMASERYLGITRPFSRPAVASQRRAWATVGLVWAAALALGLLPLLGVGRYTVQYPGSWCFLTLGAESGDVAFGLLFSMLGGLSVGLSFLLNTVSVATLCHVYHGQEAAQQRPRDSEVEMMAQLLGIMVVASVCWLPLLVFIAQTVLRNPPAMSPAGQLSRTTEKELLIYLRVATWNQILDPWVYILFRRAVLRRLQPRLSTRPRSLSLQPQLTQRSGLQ
Chain of hEP3D (P43115 other isoform, or with tags, fused parts or gaps): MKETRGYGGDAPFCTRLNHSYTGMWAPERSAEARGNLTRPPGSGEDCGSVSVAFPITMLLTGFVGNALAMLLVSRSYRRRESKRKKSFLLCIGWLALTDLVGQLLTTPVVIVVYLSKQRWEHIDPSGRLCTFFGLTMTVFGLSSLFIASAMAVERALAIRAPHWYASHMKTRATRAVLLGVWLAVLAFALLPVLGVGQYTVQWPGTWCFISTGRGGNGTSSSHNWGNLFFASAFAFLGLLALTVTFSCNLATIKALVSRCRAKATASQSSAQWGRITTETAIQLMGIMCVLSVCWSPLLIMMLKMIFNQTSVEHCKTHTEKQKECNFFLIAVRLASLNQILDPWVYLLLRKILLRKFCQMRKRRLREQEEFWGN
T1 sequence (P35408 whole entry, looked up): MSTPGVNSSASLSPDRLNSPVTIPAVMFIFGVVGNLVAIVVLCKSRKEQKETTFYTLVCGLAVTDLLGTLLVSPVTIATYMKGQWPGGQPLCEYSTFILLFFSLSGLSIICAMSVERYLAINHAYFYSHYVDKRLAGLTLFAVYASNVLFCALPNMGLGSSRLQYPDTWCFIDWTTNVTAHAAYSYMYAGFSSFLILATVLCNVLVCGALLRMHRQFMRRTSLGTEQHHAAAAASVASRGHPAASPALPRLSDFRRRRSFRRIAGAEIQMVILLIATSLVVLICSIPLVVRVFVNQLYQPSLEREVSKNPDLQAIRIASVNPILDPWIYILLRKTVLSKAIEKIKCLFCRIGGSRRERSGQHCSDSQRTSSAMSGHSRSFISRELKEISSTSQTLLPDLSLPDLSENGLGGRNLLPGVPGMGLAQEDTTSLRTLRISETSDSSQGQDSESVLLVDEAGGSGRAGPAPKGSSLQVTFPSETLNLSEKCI
Chain of hEP3A (P43115 whole entry): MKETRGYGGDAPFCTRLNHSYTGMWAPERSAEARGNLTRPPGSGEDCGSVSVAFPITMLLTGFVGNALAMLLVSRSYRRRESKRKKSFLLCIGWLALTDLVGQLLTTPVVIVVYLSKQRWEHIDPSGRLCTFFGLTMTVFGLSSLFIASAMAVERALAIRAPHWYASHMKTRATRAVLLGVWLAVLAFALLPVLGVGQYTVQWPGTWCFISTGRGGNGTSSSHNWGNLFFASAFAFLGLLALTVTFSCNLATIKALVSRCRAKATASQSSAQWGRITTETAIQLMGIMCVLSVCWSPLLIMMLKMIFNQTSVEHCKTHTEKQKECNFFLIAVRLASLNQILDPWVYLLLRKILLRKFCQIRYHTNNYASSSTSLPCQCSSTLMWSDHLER

Compound | EC50 [1] | IC50 [2] | other results
COC(=O)CSCCCS[C@H]1C(=O)C(C)(C)[C@@H](O)[C@@H]1/C=C/C(O)CCc1sc2ccccc2c1Cl (single isomer, unassigned) [Compound 22] | 30 nM | 300 nM | 
CC1(C)C(=O)[C@H](SCCCSCC(=O)O)[C@@H](/C=C/C(O)CCc2sc3ccccc3c2Cl)[C@@H]1O (single isomer, unassigned) [Compound 23] | 0.1 nM | 44 nM | hTP radioligand binding IC50 [3]: > 10 µM; hEP3D radioligand binding IC50 [4]: > 10 µM
CC1(C)C(=O)[C@H](SCCCSCC(=O)O)[C@@H](/C=C/C(O)CCc2sc3ccccc3c2Cl)[C@@H]1O (single isomer, unassigned) [Compound 24] | 0.1 nM | 26 nM | hEP3D radioligand binding IC50 [4]: >>10K
COC(=O)CCC/C=C\C[C@H]1C(=O)C(C)(C)[C@@H](O)[C@@H]1/C=C/C(O)CCc1sc2ccccc2c1Cl (single isomer, unassigned) [Compound 38] | 269 nM | 2700 nM | 
COC(=O)CCC/C=C\C[C@H]1C(=O)C(C)(C)[C@@H](O)[C@@H]1/C=C/C(O)CCc1sc2ccccc2c1Cl (single isomer, unassigned) [Compound 39] | 141 nM | 2300 nM | 
CC1(C)C(=O)[C@H](C/C=C\CCCC(=O)O)[C@@H](/C=C/C(O)CCc2sc3ccccc3c2Cl)[C@@H]1O (single isomer, unassigned) [Compound 40] | 0.3 nM | 200 nM | hTP radioligand binding IC50 [3]: > 10 µM
CC1(C)C(=O)[C@H](C/C=C\CCCC(=O)O)[C@@H](/C=C/C(O)Cc2ccccc2)[C@@H]1O (single isomer, unassigned) [Compound 47] |  | 76 nM | hEP3D radioligand binding IC50 [4]: > 10 µM; IC50 [5]: 963 nM
COC(=O)CCC/C=C\C[C@H]1C(=O)C(C)(C)[C@@H](O)[C@@H]1/C=C/C(O)Cc1ccccc1 (single isomer, unassigned) [Compound 48] |  | 45 nM | 
COC(=O)CCC/C=C\C[C@H]1C(=O)C(C)(C)[C@@H](O)[C@@H]1/C=C/C(O)Cc1ccccc1 (single isomer, unassigned) [Compound 49] |  | 1400 nM | 
COC(=O)CCC/C=C\C[C@H]1C(=O)C(C)(C)[C@@H](O)[C@@H]1/C=C/C(O)CCc1ccccc1 (single isomer, unassigned) [Compound 51] |  | 700 nM | 
CC1(C)C(=O)[C@H](C/C=C\CCCC(=O)O)[C@@H](/C=C/C(O)CCc2ccccc2)[C@@H]1O (single isomer, unassigned) [Compound 52] | 18 nM | 72 nM | IC50 [4]: 60 nM; IC50 [5]: 27 nM
CC1(C)C(=O)[C@H](C/C=C\CCCC(=O)O)[C@@H](/C=C/C(O)CCc2ccccc2)[C@@H]1O (single isomer, unassigned) [Compound 53] | 6.4 nM | 59 nM | IC50 [4]: 1860 nM; IC50 [5]: 1020 nM
CC1(C)C(=O)[C@H](C/C=C\CCCC(=O)O)[C@@H](/C=C/C(O)Cc2cc3ccccc3s2)[C@@H]1O (single isomer, unassigned) [Compound 54] | 0.3 nM | 20 nM | IC50 [4]: 4700 nM; IC50 [5]: 308 nM
CC1(C)C(=O)[C@H](C/C=C\CCCC(=O)O)[C@@H](/C=C/C(O)Cc2cc3ccccc3s2)[C@@H]1O (single isomer, unassigned) [Compound 55] | 38 nM | 310 nM | hEP3D radioligand binding IC50 [4]: > 10 µM; IC50 [5]: 758 nM
CCNC(=O)CCC/C=C\C[C@H]1C(=O)C(C)(C)[C@@H](O)[C@@H]1/C=C/C(O)Cc1cc2ccccc2s1 (single isomer, unassigned) [Compound 60] |  |  | hEP4 radioligand binding IC50 [2]: > 10 µM
CCN(CC)C(=O)CCC/C=C\C[C@H]1C(=O)C(C)(C)[C@@H](O)[C@@H]1/C=C/C(O)Cc1cc2ccccc2s1 (single isomer, unassigned) [Compound 62] |  | 832 nM | 
CCN(CC)C(=O)CCC/C=C\C[C@H]1C(=O)C(C)(C)[C@@H](O)[C@@H]1/C=C/C(O)Cc1cc2ccccc2s1 (single isomer, unassigned) [Compound 63] |  | 478 nM | hEP1 radioligand binding IC50 [5]: > 10 µM
CC1(C)C(=O)[C@H](C/C=C\CCCC(=O)NCCO)[C@@H](/C=C/C(O)Cc2cc3ccccc3s2)[C@@H]1O (single isomer, unassigned) [Compound 64] |  | 4150 nM | 
CC1(C)C(=O)[C@H](C/C=C\CCCC(N)=O)[C@@H](/C=C/C(O)Cc2cc3ccccc3s2)[C@@H]1O (single isomer, unassigned) [Compound 68] |  | 678 nM | hTP radioligand binding IC50 [3]: > 10 µM
CC1(C)C(=O)[C@H](C/C=C\CCCC(N)=O)[C@@H](/C=C/C(O)Cc2cc3ccccc3s2)[C@@H]1O (single isomer, unassigned) [Compound 69] |  | 5000 nM | hTP radioligand binding IC50 [3]: > 10 µM
COC(=O)CCC/C=C\C[C@H]1C(=O)C(C)(C)[C@@H](O)[C@@H]1/C=C/C(O)Cc1cc2ccccc2s1 (single isomer, unassigned) [Compound 70] |  | 219 nM | hEP3D radioligand binding IC50 [4]: > 10 µM
COC(=O)CCC/C=C\C[C@H]1C(=O)C(C)(C)[C@@H](O)[C@@H]1/C=C/C(O)Cc1cc2ccccc2s1 (single isomer, unassigned) [Compound 71] |  | 10000 nM | 
COC(=O)CCCC#CC[C@H]1C(=O)C(C)(C)[C@@H](O)[C@@H]1/C=C/C(O)Cc1cc2ccccc2s1 (single isomer, unassigned) [Compound 72] |  |  | hEP4 radioligand binding IC50 [2]: > 10 µM
CC1(C)C(=O)[C@H](CC#CCCCC(=O)O)[C@@H](/C=C/C(O)Cc2cc3ccccc3s2)[C@@H]1O (single isomer, unassigned) [Compound 74] |  | 256 nM | IC50 [5]: 2380 nM
CC1(C)C(=O)[C@H](CC#CCCCC(=O)O)[C@@H](/C=C/C(O)Cc2cc3ccccc3s2)[C@@H]1O (single isomer, unassigned) [Compound 75] |  |  | hTP radioligand binding IC50 [3]: > 10 µM; IC50 [5]: 2050 nM; hEP4 radioligand binding IC50 [2]: > 10 µM
CCCCC[C@H](O)/C=C/[C@@H]1[C@@H](CC#CCCCC(=O)OC)C(=O)C(C)(C)[C@H]1O [Compound 42, 7-[(1R,4S,5R)-4-Hydroxy-5-((E)-(S)-3-hydroxy-oct-1-enyl)-3,3-dimethyl-2-oxo-cyclopentyl]-hept-5-ynoic acid methyl ester] |  | > 10000 nM | IC50 [4]: > 10000 nM; EC50 [6]: 559 nM
